Assay results taken from the NIST ThermoML archive (doi:10.1021/acs.jced.9b00074).

Assay: xn = mol fraction of the nth substance listed
Settings: 100 kPa, Liquid; for viscosity: Falling or rolling sphere viscometry; for mass density: Vibrating tube method

OC1CCCC1 [cyclopentanol] + C1C[C@@H]2[C@H]3CC[C@H](C3)[C@@H]2C1
Settings | mass density [kg/m3] | viscosity [mPa·s]
293.15 K, x1 = 0.101 | 935.59 | 3.091
293.15 K, x1 = 0.201 | 935.84 | 3.26
293.15 K, x1 = 0.296 | 936.28 | 3.471
293.15 K, x1 = 0.3962 | 937.08 | 3.794
293.15 K, x1 = 0.5016 | 938.1 | 4.304
293.15 K, x1 = 0.6017 | 939.39 | 5.009
293.15 K, x1 = 0.7011 | 940.96 | 5.976
293.15 K, x1 = 0.7968 | 942.64 | 7.24
293.15 K, x1 = 0.9005 | 944.8 | 9.125
298.15 K, x1 = 0.101 | 931.59 | 2.829
298.15 K, x1 = 0.201 | 931.81 | 2.917
298.15 K, x1 = 0.296 | 932.23 | 3.093
298.15 K, x1 = 0.3962 | 932.99 | 3.355
298.15 K, x1 = 0.5016 | 934 | 3.762
298.15 K, x1 = 0.6017 | 935.27 | 4.32
298.15 K, x1 = 0.7011 | 936.86 | 5.083
298.15 K, x1 = 0.7968 | 938.57 | 6.076
298.15 K, x1 = 0.9005 | 940.78 | 7.555
303.15 K, x1 = 0.101 | 927.56 | 2.564
303.15 K, x1 = 0.201 | 927.75 | 2.623
303.15 K, x1 = 0.296 | 928.14 | 2.774
303.15 K, x1 = 0.3962 | 928.88 | 2.987
303.15 K, x1 = 0.5016 | 929.87 | 3.316
303.15 K, x1 = 0.6017 | 931.12 | 3.761
303.15 K, x1 = 0.7011 | 932.71 | 4.367
303.15 K, x1 = 0.7968 | 934.45 | 5.154
303.15 K, x1 = 0.9005 | 936.7 | 6.316
308.15 K, x1 = 0.101 | 923.52 | 2.329
308.15 K, x1 = 0.201 | 923.67 | 2.376
308.15 K, x1 = 0.296 | 924.03 | 2.499
308.15 K, x1 = 0.3962 | 924.74 | 2.674
308.15 K, x1 = 0.5016 | 925.71 | 2.941
308.15 K, x1 = 0.6017 | 926.94 | 3.298
308.15 K, x1 = 0.7011 | 928.53 | 3.78
308.15 K, x1 = 0.7968 | 930.28 | 4.407
308.15 K, x1 = 0.9005 | 932.57 | 5.324
313.15 K, x1 = 0.101 | 919.47 | 2.122
313.15 K, x1 = 0.201 | 919.57 | 2.156
313.15 K, x1 = 0.296 | 919.9 | 2.261
313.15 K, x1 = 0.3962 | 920.57 | 2.404
313.15 K, x1 = 0.5016 | 921.52 | 2.62
313.15 K, x1 = 0.6017 | 922.73 | 2.908
313.15 K, x1 = 0.7011 | 924.31 | 3.296
313.15 K, x1 = 0.7968 | 926.07 | 3.796
313.15 K, x1 = 0.9005 | 928.4 | 4.527
318.15 K, x1 = 0.101 | 915.4 | 1.94
318.15 K, x1 = 0.201 | 915.45 | 1.965
318.15 K, x1 = 0.296 | 915.74 | 2.053
318.15 K, x1 = 0.3962 | 916.37 | 2.171
318.15 K, x1 = 0.5016 | 917.29 | 2.348
318.15 K, x1 = 0.6017 | 918.48 | 2.58
318.15 K, x1 = 0.7011 | 920.05 | 2.893
318.15 K, x1 = 0.7968 | 921.82 | 3.293
318.15 K, x1 = 0.9005 | 924.18 | 3.878
323.15 K, x1 = 0.101 | 911.31 | 1.779
323.15 K, x1 = 0.201 | 911.3 | 1.799
323.15 K, x1 = 0.296 | 911.55 | 1.871
323.15 K, x1 = 0.3962 | 912.15 | 1.968
323.15 K, x1 = 0.5016 | 913.03 | 2.112
323.15 K, x1 = 0.6017 | 914.19 | 2.302
323.15 K, x1 = 0.7011 | 915.74 | 2.554
323.15 K, x1 = 0.7968 | 917.51 | 2.876
323.15 K, x1 = 0.9005 | 919.9 | 3.346
328.15 K, x1 = 0.101 | 907.2 | 1.639
328.15 K, x1 = 0.201 | 907.12 | 1.65
328.15 K, x1 = 0.296 | 907.33 | 1.711
328.15 K, x1 = 0.3962 | 907.88 | 1.791
328.15 K, x1 = 0.5016 | 908.73 | 1.908
328.15 K, x1 = 0.6017 | 909.87 | 2.063
328.15 K, x1 = 0.7011 | 911.39 | 2.268
328.15 K, x1 = 0.7968 | 913.16 | 2.527
328.15 K, x1 = 0.9005 | 915.56 | 2.906
333.15 K, x1 = 0.101 | 903.08 | 1.514
333.15 K, x1 = 0.201 | 902.92 | 1.521
333.15 K, x1 = 0.296 | 903.08 | 1.569
333.15 K, x1 = 0.3962 | 903.59 | 1.635
333.15 K, x1 = 0.5016 | 904.4 | 1.732
333.15 K, x1 = 0.6017 | 905.5 | 1.858
333.15 K, x1 = 0.7011 | 907 | 2.023
333.15 K, x1 = 0.7968 | 908.75 | 2.233
333.15 K, x1 = 0.9005 | 911.17 | 2.54
